Reference: ChEMBL document CHEMBL4613259, “Biosynthesis of Amino Acid Derived α-Pyrones by an NRPS-NRPKS Hybrid Megasynthetase in Fungi” (J Nat Prod, 2020)
Values after ≈ are worked out from the molar mass of the structure shown. Active and inactive are the calls of the source. No cut-off for these calls is given here.

Test system: Candida albicans
Assay: Antifungal activity against Candida albicans SC5314 up to 100 ug/ml after 48 hrs by microdilution assay
Format: functional, organism-based

**Q.** Which Activity does the source give for COc1cc([C@H](Cc2ccccc2)NC(C)=O)oc(=O)c1 here?
**A.** inactive

**Q.** For COc1cc([C@H](Cc2cccc(Cl)c2)NC(C)=O)oc(=O)c1, which Activity is on record?
**A.** inactive

**Q.** Which Activity does the source give for COc1cc([C@H](Cc2ccc(Br)cc2)NC(C)=O)oc(=O)c1 here?
**A.** inactive

**Q.** For COc1cc([C@H](Cc2ccc(Cl)cc2)NC(C)=O)oc(=O)c1, which Activity is on record?
**A.** inactive

**Q.** Which Activity does the source give for COc1cc([C@H](Cc2ccc(F)cc2)NC(C)=O)oc(=O)c1 here?
**A.** inactive

**Q.** COc1cc([C@H](Cc2ccc(C)cc2)NC(C)=O)oc(=O)c1 was tested. Which Activity did it give?
**A.** inactive

**Q.** With COc1cc([C@H](Cc2ccccc2Cl)NC(C)=O)oc(=O)c1 as the compound, how does the Activity read?
**A.** inactive

Test system: T47D
Assay: Growth inhibition of human T47D cells
Format: functional, cell-based

**Q.** COc1cc([C@H](Cc2ccccc2)NC(C)=O)oc(=O)c1 was tested. Which IC50 did it give?
**A.** 9.2 µg/mL (≈ 32 µM)

Test system: Aspergillus nidulans
Assay: Growth inhibition of Aspergillus nidulans at 0 to 300 ug/ml incubated for 4 days
Format: functional, organism-based

**Q.** Which “growth inhibition (GI)” value does the source give for N[C@@H](Cc1ccccc1)c1cc(O)cc(=O)o1 here?
**A.** Active
